47 molecules from US20230115176A1 (Ra Pharmaceuticals, Inc., priority 2019, published 2023) can be followed below.

Molecules are shown by their SMILES. ≈ marks a conversion by molar mass, not a printed value. Where two headings read alike, the source gives them in different places.

For data set [1], the target named is T1, Human C5 (Homo sapiens, UniProt P01031).
T1 construct: purchased Complement Technology
As to the kind of experiment: Surface plasmon resonance (SPR), immobilized human C5 (Example 9, Table 18). Type of data set: binding. To be noted: immobilized human C5, equilibrium dissociation constant; read-out: SPR C5 EQ KD. An excerpt: Morrison and Boyd in “Organic Chemistry”, 6th edition, Prentice Hall (1992)] and validated for proper structure by mass spectrometry.

The target in data set [2] is purified human C5 (Homo sapiens, UniProt P01031). Put plainly: Red blood cell (RBC) hemolysis assay, optical, absorbance 412 nm (Example 10, Table 19). In kind it is cell-based. To be noted: antibody-sensitized sheep erythrocytes, […] human C5 depleted sera.
Chain of purified human C5 (P01031 19-1676): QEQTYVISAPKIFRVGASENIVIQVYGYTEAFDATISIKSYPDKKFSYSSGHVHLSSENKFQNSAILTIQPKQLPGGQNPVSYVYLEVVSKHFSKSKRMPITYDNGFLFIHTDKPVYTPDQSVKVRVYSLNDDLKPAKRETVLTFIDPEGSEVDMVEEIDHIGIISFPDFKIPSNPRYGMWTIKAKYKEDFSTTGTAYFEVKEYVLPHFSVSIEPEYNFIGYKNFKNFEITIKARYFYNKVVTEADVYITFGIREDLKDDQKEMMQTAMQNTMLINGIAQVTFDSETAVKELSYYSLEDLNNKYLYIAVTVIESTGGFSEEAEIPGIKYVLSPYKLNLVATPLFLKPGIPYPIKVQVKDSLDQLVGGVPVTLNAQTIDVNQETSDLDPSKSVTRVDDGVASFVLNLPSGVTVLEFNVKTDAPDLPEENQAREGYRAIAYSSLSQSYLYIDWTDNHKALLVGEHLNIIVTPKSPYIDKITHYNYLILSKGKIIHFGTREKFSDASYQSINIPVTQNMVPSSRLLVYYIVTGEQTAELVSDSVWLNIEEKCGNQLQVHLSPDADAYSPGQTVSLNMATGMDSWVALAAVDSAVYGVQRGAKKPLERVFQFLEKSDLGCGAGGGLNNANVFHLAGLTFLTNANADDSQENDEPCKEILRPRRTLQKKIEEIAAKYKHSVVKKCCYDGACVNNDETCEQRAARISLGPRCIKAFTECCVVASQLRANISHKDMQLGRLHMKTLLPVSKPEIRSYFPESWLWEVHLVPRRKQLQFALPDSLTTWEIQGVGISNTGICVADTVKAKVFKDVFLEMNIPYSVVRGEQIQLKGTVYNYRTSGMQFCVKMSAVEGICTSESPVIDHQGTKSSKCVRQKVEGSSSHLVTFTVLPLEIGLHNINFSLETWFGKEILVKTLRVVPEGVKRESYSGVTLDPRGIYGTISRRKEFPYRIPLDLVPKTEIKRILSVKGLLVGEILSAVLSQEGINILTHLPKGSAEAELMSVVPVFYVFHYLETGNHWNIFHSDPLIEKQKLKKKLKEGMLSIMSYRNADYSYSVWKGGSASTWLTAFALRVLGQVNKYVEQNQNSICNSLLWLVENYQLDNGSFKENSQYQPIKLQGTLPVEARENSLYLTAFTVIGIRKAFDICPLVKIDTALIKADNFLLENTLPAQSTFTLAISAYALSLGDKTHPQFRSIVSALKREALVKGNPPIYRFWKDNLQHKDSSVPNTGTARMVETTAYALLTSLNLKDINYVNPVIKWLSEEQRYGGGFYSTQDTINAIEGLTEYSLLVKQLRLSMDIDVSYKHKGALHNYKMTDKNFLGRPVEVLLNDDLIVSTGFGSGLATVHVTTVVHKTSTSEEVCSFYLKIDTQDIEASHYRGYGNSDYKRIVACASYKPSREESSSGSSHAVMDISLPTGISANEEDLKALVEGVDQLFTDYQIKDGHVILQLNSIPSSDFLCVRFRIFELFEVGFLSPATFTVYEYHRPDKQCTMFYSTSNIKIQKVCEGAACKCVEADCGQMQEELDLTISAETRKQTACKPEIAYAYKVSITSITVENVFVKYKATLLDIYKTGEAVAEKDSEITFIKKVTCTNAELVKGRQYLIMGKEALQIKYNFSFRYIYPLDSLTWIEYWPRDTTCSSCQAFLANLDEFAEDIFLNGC
Data set [3] can be described thus: Kinetic solubility in PBS pH 7.4, HPLC-UV (Example 21, Table 27). As to conditions: phosphate buffered saline, aqueous buffer, kinetic from dmso stock, 0.5 M PBS, shaken minimum 24 h at approximately 25° C., HPLC-UV 270 nm. Type of data set: physicochemical. The essentials:
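Supernatant measured by HPLC-UV (270 nm) against a DMSO calibration curve of 15.6–500.0 μM after filtration. Triplicate samples were made from 10 mM DMSO stock in 0.05 M phosphate buffer pH 7.4 (5% DMSO) and shaken at least 24 h at about 25 °C.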

In data set [4] the target is T1, Human C5. As to the kind of experiment: Red blood cell (RBC) hemolysis assay, luminescent (Example 28, Table 32). As to conditions: sheep EA cells, 1.5% C5-depleted human serum, 0.5 nM human C5, 1 hour at 37° C., luminescence (Table 32). Type of data set: cell-based.
Setting [5] is: 0.5 nM purified human C5, absorbance 412 nm, read-out: RBC Hemolysis IC50.

T1 sequence (P01031 19-1676): as above

The term Kd denotes a measure of binding affinity in units of concentration. Usually IC50 stands for the point on the concentration scale where inhibition reaches its midpoint. `COc1ccc(OC)c(CNC(=O)Nc2ccc(OC)c(OCCCC(C)C)c2)c1` [Compound C5INH-0296]: the Kd in data set [1] stood at 20 nM. The IC50 in data set [2] (setting [5]) was 680 nM. On the same counts, the results for `COc1cc(F)ccc1CNC(=O)Nc1ccc(OC)c(OCCCC(C)C)c1` [Compound C5INH-0298] are 550 nM and 269 nM. Taken in the same sequence, the figures for `COc1ccc(NC(=O)NCc2cccc(C(=N)N)c2)cc1OCCCC(C)C` [Compound C5INH-0303] were 710 nM and 2940 nM.

For the molecule `COc1ccc(NC(=O)NCc2cccnc2OC)cc1OCCCC(C)C` [Compound C5INH-0310], in data set [1], the Kd is 40 nM. The IC50 in data set [2] (setting [5]) came to 203 nM. On the same counts, the results for `COc1ccc(NC(=O)NCc2ccc(O)cc2O)cc1OCCCC(C)C` [Compound C5INH-0311] are 20 nM and 27 nM. On to `COc1ccc(NC(=O)NC(CO)c2cc(F)ccc2O)cc1OCCCC(C)C` (stereo not shown) [Compound C5INH-0315], for which the Kd in data set [1] stood at 50 nM. Further, the IC50 in data set [2] (0.5 nM human C5, read-out: IC50) was under 20 nM; in data set [2] (setting [5]) it was 13.7 nM. Consider `COc1ccc(NC(=O)NC(CO)c2cccnc2OC)cc1OCCCC(C)C` (stereo not shown) [Compound C5INH-0316], for which the Kd in data set [1] worked out at 58 nM. In addition, in data set [2] (setting [5]), the IC50 was 60 nM. The kinetic solubility is solubility judged after dilution from a stock solution rather than from solid. In data set [3], `CCCCCOc1cc(N2CC[C@H](C)N(Cc3ccnc4c3c(Cl)cn4CC(=O)N3CCO[C@H](COC)C3)C2=O)ccc1OC` [SC0127] registered a kinetic solubility of under 10 µM. In data set [4], this molecule showed an IC50 of 1.7 nM. As to `COc1cc(CC(=O)N2CCN(C)CC2)ccc1CN1C(=O)N(c2ccc(OC)c(OCCCC3CC3)c2)CC[C@@H]1C` [SC0137], the solubility (kinetic) in data set [3] was 275 µM (≈ 159 µg/mL). The IC50 in data set [4] came out at 1.8 nM. On the same counts, the results for `COc1cc(CC(=O)N2CCNC(=O)C2)ccc1CN1CC(C)CN(c2ccc(OC)c(OCCCC3CC3)c2)C1=O` (stereo not shown) [SC0158] are 16 µM (≈ 9.26 µg/mL) and 2.7 nM. On the same counts, the results for `COc1cc(CCN2CCS(=O)(=O)CC2)ccc1CN1C(=O)N(c2ccc(OC)c(OCCCC3CC3)c2)CC[C@@H]1C` [SC0162] are under 10 µM and 2.8 nM. Taken in the same sequence, the figures for `CCCCCOc1cc(N2CC[C@@H](C)N(Cc3cccc4[nH]cc(Cl)c34)C2=O)ccc1OC` [SC0167] were under 10 µM and 3.2 nM. With `CCCCCOc1cc(N2CC(C)CN(Cc3ccc(CNC(C)=O)cc3OC)C2=O)ccc1OC` (stereo not shown) [SC0198], the IC50 in data set [4] was determined as 9.7 nM. Same read-out and setting: as for `CCCCCOc1cc(N2CC(C(N)=O)CN(Cc3ccc(CNC(C)=O)cc3OC)C2=O)ccc1OC` (stereo not shown) [SC0199], the figure is 9.8 nM; as for `CCCCCOc1cc(N2CC(C)CN(Cc3ccc(CNC(=O)OC)cc3OC)C2=O)ccc1OC` (stereo not shown) [SC0200], 9.9 nM; as for `CCCCCOc1cc(N2C[C@@H](C)CN(Cc3ccc(CC(=O)N4CCOCC4)cc3OC)C2=O)ccc1OC` [SC0201], 10 nM. Still for that read-out and setting: for `COc1cc(CC(=O)N(C)[C@@H]2CCN(C(=O)OC(C)(C)C)C2)ccc1CN1C(=O)N(c2ccc(OC)c(OCCCC3CC3)c2)CC[C@@H]1C` [SC0202] the value was 10.1 nM; for `COc1ccc(N2CC[C@H](C)N(Cc3cccc4c3ccn4CC(=O)N(C)C)C2=O)cc1OCCCCC1CC1` [SC0203], 10.2 nM.

In turn, `CCCCCOc1cc(N2CC(C(N)=O)CN(Cc3ccc(CC(=O)N(C)C)cc3OC)C2=O)ccc1OC` (stereo not shown) [SC0204] showed a solubility (kinetic) in data set [3] of 465 µM (≈ 251 µg/mL). The same molecule showed an IC50 in data set [4] of 10.9 nM. In the case of `COc1ccc(N2CC[C@H](C)N(Cc3cccc4c3ccn4CC(=O)N(C)C)C2=O)cc1OCCCC1CCC1` [SC0205], the IC50 in data set [4] turned out to be 11.4 nM. On the same count and under the same terms, as for `CCCCCOc1cc(N2C[C@@H](CO)CN(Cc3ccc(CC(=O)N(C)C)cc3OC)C2=O)ccc1OC` [SC0206], the figure is 11.7 nM; as for `CCCCCOc1cc(N2C[C@H](C)CN(Cc3ccc(CC(=O)N4CCCC4)cc3OC)C2=O)ccc1OC` [SC0207], 11.8 nM; as for `COc1ccc(N2CC[C@H](C)N(Cc3ccnc4c3ccn4CC(=O)N(C)C)C2=O)cc1OCCCC1CC1` [SC0208], 12.6 nM.

Turning to `CCCCCOc1cc(N2C[C@H](C)CN(Cc3ccc(CC(=O)N(C)C)cc3OC)C2=O)ccc1OC` [SC0209], half-maximal inhibition in data set [4] (IC50) required 12.6 nM. `CCCCCOc1cc(N2C[C@@H](C)CN(Cc3ccc(CC(=O)N(C)C)cc3OC)C2=O)ccc1OC` [SC0210]: the IC50 in data set [4] was 15.1 nM. Consider `CCCCCOc1cc(N2CC[C@@H](C)N(Cc3cccc4c3ccn4CC(=O)OCC)C2=O)ccc1OC` [SC0211], for which the IC50 in data set [4] was found to be 15.6 nM. Still for that read-out and setting: for `CCCCCOc1cc(N2C[C@@H](C)CN(Cc3ccc(CC(=O)N4CCCC4)cc3OC)C2=O)ccc1OC` [SC0212] the value was 16.5 nM.

Turning to `CCCCCOc1cc(N2C[C@@H](C(N)=O)CN(Cc3cc(F)ccc3OC)C2=O)ccc1OC` [SC0213], in data set [4], the IC50 was 18.2 nM. Same read-out and setting: for `CCCCCOc1cc(N2CC[C@@H](C)N(Cc3cccc4[nH]ccc34)C2=O)ccc1OC` [SC0214] the value was 18.2 nM; for `CCCCCOc1cc(N2C[C@H](C(N)=O)CN(Cc3cc(F)ccc3OC)C2=O)ccc1OC` [SC0215], 18.6 nM; for `COc1cc(CC(=O)N[C@H]2CCN(C(=O)OC(C)(C)C)C2)ccc1CN1C(=O)N(c2ccc(OC)c(OCCCC3CC3)c2)CC[C@@H]1C` [SC0216], 19.6 nM. Same read-out and setting: for `CCCCCOc1cc(N2C[C@H](C(=O)NC)CN(Cc3cc(F)ccc3OC)C2=O)ccc1OC` [SC0217] the value was 25.3 nM. Same read-out and setting: for `CCCCCOc1cc(N2CC[C@H](C)N(Cc3cccc4c3cc(C)n4CC(=O)N(C)C)C2=O)ccc1OC` [SC0218] the value was 34.4 nM; for `CCCCCOc1cc(N2CC[C@H](C)N(Cc3ccnc4[nH]ccc34)C2=O)ccc1OC` [SC0219], 40 nM.

In data set [4], `CCCCCOc1cc(N2CC(C)(C)CN(Cc3ccc(CC(=O)N(C)C)cc3OC)C2=O)ccc1OC` [SC0220] registered an IC50 of 42.1 nM. Same read-out and setting: as for `COc1cc(CC(=O)O)ccc1CN1CC(C)CN(c2ccc(OC)c(OCCCC3CC3)c2)C1=O` (stereo not shown) [SC0221], the figure is 54.4 nM; as for `CCCCCOc1cc(N2CC(CO)CN(Cc3ccc(CC(=O)O)cc3OC)C2=O)ccc1OC` (stereo not shown) [SC0222], 74.1 nM; as for `CCCCCOc1cc(N2C[C@@H](C(=O)NC)CN(Cc3cc(F)ccc3OC)C2=O)ccc1OC` [SC0223], 96.9 nM. Consider `CCCCCOc1cc(N2CC(CO)CN(Cc3ccc(C#N)cc3OC)C2=O)ccc1OC` (stereo not shown) [SC0224], for which, in data set [4], inhibition was half-maximal at 98.5 nM (IC50). The same measure, in the same setting: as for `COc1ccc(N2CC[C@H](C)N(Cc3cccc4c3ccn4S(=O)(=O)c3ccc(C)cc3)C2=O)cc1OCCCC1CC1` [SC0225], the figure is 110 nM; as for `C=C1CN(Cc2ccc(C#N)cc2OC)C(=O)N(c2ccc(OC)c(OCCCCC)c2)C1` [SC0226], 132 nM. In the case of `CCCCCOc1cc(N2CC[C@@H](C)N(Cc3cccc4c3ccn4CC(=O)O)C2=O)ccc1OC` [SC0227], the IC50 in data set [4] came to 135 nM. Same read-out and setting: as for `CCCCCOc1cc(N2CC(C)CN(Cc3ccc(C#N)cc3OC)C2=O)ccc1OC` (stereo not shown) [SC0228], the figure is 211 nM; as for `CCCCCOc1cc(N2CC(COCc3ccccc3)CN(Cc3ccc(CC(=O)O)cc3OC)C2=O)ccc1OC` (stereo not shown) [SC0229], 371 nM; as for `CCCCCOc1cc(N2CC[C@@H](C)N(Cc3cccc4c3ccn4S(=O)(=O)c3ccc(C)cc3)C2=O)ccc1OC` [SC0230], 703 nM.

Take `CCCCCOc1cc(N2CC[C@@H](C)NC2=O)ccc1OC` [SC0231]: in data set [4], the IC50 is 2660 nM. On the same count and under the same terms, as for `CCCCCOc1cc(N2CC(COCc3ccccc3)CN(Cc3ccc(Br)cc3OC)C2=O)ccc1OC` (stereo not shown) [SC0232], the figure is 3120 nM.
